Experimental data reported in patent publication US12030877B2, “Prostaglandin E synthase inhibitors and methods for utilizing the same” (University of Kentucky Research Foundation, priority 2016, dated 2024).
Like-named read-outs stand apart in the source and are kept apart here.

What was measured:
mPGES-1 Mouse enzyme = target: T1, mPGES-1 Mouse enzyme (Mus musculus, UniProt Q9JM51); experiment: mPGES-1 enzyme activity assay (PGE2 enzyme immunoassay), mouse enzyme; format: biochemical; details: for IC50: recombinant microsomal enzyme, means ± SD, triplicate; for inhibition at 10 µM: compound at a concentration of 10 μM, read-out: % inhibition of the compound against mPGES-1, Mouse enzyme
T1 construct: made in house; host or cells: FreeStyle 293-F cells, crude microsomal preparation
T1 sequence (Q9JM51 1-153): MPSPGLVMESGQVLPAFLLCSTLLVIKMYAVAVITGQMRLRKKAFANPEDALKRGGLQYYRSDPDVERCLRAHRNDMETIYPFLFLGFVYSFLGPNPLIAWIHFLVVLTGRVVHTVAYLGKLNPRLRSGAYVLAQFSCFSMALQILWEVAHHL
Description: (§1) Studies were conducted to characterize the inhibitory activity against recombinant mPGES-1 of the compounds synthesized in accordance with Examples 1-4, and disclosed herein.
(§2) Briefly, FreeStyle 293-F cells were cultured following manufacturer's manual in FreeStyle 293 expression medium on orbit rotate shaker in 8% CO2 incubator at 37° C. Cells were transfected with 1.5 μg/mL of mPGES-1/pcDNA3 construct using FreeStyle Max reagent at a cell density of 1×10^6 for 2 days. Transfected cells were collected, washed, and sonicated in TSES buffer (15 mM Tris-HCl, pH 8.0 plus 0.25 M sucrose, 0.1 mM EDTA and 1 mM DTT) on ice. The broken cells were first centrifuged at 12,500×g for 10 min. The supernatant was further centrifuged at 105,000×g for 1 hr at 4° C. The pellet was washed and homogenized in PBS buffer. The crude microsomal mPGES-1 preparation was aliquoted and stored at −80° C. The crude protein concentration was 8 mg/mL.
(§3) The enzyme activity assays were performed on ice in 1.5 ml microfuge tubes by using the expressed mPGES-1. The reaction mixture contained: 0.2 M Na2HPO4/NaH2PO4, pH 7.2, 10 μL; 0.1 M GSH, 2.5 μL; diluted microsomal enzyme (80 μg/mL), 1 μL; PGH2 (0.31 mM in DMF), 5 μL; 1 μL inhibitor; and H2O in a final reaction volume of 100 μL. PGH2 was stored in dry ice and used to initiate the reaction.
(§4) Compounds were incubated with the enzyme for 15 min at room temperature before the addition of cold PGH2 (1 μM final) to initiate the enzyme reaction. After 30 s, 10 μL of SnCl2 (40 mg/mL) in ethanol was added to stop the reaction. The nonenzymatic conversion of PGH2 to PGE2 was performed in the same buffer devoid of enzyme. The reaction mixture was placed on ice until PGE2 production was determined by the PGE2 enzyme immunoassay as described earlier. IC50 values of the inhibitors were calculated by using the GraphPad Prism 4.0 program. The results are set forth in the tables provided in Examples 7-10.

mPGES-1 = target: T2, mPGES-1 (Homo sapiens, UniProt O14684); experiment: mPGES-1 enzyme activity assay (PGE2 enzyme immunoassay), human enzyme; format: biochemical; set-up: made in house; host or cells: FreeStyle 293-F cells, crude microsomal preparation; details: recombinant microsomal enzyme, means ± SD, triplicate
T2 sequence (O14684 1-152): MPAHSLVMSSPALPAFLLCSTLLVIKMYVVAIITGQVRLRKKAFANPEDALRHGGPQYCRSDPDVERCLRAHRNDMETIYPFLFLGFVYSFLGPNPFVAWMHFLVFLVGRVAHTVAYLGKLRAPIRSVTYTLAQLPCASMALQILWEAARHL
Description: as §1, §2, §3, §4

[1] = IC50 against mPGES-1, Mouse enzyme
[2] = IC50 against mPGES-1, Human enzyme
[3] = read-out: IC50 against mPGES-1, Human enzyme
[4] = read-out: IC50 against mPGES-1, Mouse enzyme

Row | SMILES | IC50 (mPGES-1 Mouse enzyme; [1]) [nM] | IC50 (mPGES-1; [2]) [nM] | inhibition at 10 µM (mPGES-1 Mouse enzyme) [%] | IC50 (mPGES-1; [3]) [nM] | IC50 (mPGES-1 Mouse enzyme; [4]) [nM]
1 | O=C1NC(=O)C(=Cc2ccc(OCCCOc3ccccc3)c(Cl)c2)C(=O)N1 [Compound I-34] | 8130 ± 1010 | 349 ± 40 | – | – | –
2 | O=C1NC(=O)C(Cc2ccc(OCCCCC3CCCCC3)c([N+](=O)[O-])c2)C(=O)N1 [Compound I-44] | 3350 ± 560 | 136 ± 23 | – | – | –
3 | CCOc1ccc(-c2nn(-c3ccc(Cl)cc3)cc2C=C2C(=O)NC(=O)NC2=O)cc1 [VI-01] | – | – | 28 | 265 ± 96 | –
4 | CN1C(=O)C(=Cc2ccc(OCCCC3CCCCC3)c(Br)c2)C(=O)N(C)C1=O [Compound I-28] | – | 127 ± 14 | 30 | – | –
5 | CCCCCCCCCOc1ccc(C=C2C(=O)NC(=O)NC2=O)cc1[N+](=O)[O-] [Compound I-41] | 1300 ± 163 | 188 ± 43 | – | – | –
6 | O=C(O)CN1C(=O)S/C(=C2\C(=O)N(CCc3ccccc3)c3ccccc32)C1=O [II-03] | – | – | 62 | 348 ± 44 | –
7 | CCCCCCOc1ccc(-c2nn(-c3ccc(Cl)cc3)cc2/C=C2\SC(=O)N(CC(=O)O)C2=O)cc1 [VII-11] | – | – | 37 | 36 ± 11 | –
8 | CCOc1ccc(-c2nn(-c3ccc(Cl)cc3)cc2C=C2C(=O)NC(=S)NC2=O)cc1 [VI-10] | – | – | 46 | 95 ± 16 | –
9 | O=C(O)CN1C(=O)S/C(=C2\C(=O)N(CCC3CCCCC3)c3ccccc32)C1=O [II-07] | – | – | 39 | 494 ± 32 | –
10 | COc1ccc(C=C2C(=O)NC(=O)NC2=O)cc1OCCCCC1CCCCC1 [Compound I-12] | 727 ± 109 | 152 ± 53 | – | – | –
11 | O=C1NC(=O)C(=Cc2c(OCCCCC3CCCCC3)ccc3ccccc23)C(=O)N1 [Compound I-16] | 7040 ± 1850 | 154 ± 18 | – | – | –
12 | O=C1NC(=O)C(Cc2ccc(OCCCCC3CCCCC3)c(Cl)c2)C(=O)N1 [Compound I-42] | 1330 ± 151 | 133 ± 20 | – | – | –
13 | O=C(O)CN1C(=O)S/C(=C2\C(=O)N(CC3CCCCC3)c3ccccc32)C1=O [II-06] | – | – | – | 1270 ± 104 | 2730 ± 422
14 | O=C1NC(=O)C(=Cc2ccc(OCCCCC3CCCCC3)c3ccccc23)C(=O)N1 [Compound I-17] | 3700 ± 562 | 171 ± 34 | – | – | –
15 | CCCCCCCCCCOc1ccc(-c2nn(-c3ccc(Cl)cc3)cc2C=C2C(=O)NC(=O)NC2=O)cc1 [VI-08] | – | – | 24 | 294 ± 83 | –
16 | COc1cc(C=C2C(=O)NC(=O)NC2=O)cc(Br)c1OCCCCC1CCCCC1 [Compound I-10] | 292 ± 47 | 69 ± 16 | – | – | –
17 | O=C(O)CN1C(=O)S/C(=C2\C(=O)N(CC3CCCCC3)c3ccc(-c4ccc(-c5ccccc5)cc4)cc32)C1=O [II-19] | – | – | – | 154 ± 20 | 1020 ± 162
18 | O=C1NC(=O)C(=Cc2ccc(OCCCCC3CCCCC3)c(Cl)c2)C(=O)N1 [Compound I-21] | 415 ± 120 | 28 ± 3 | – | – | –
19 | CCCCCN1C(=O)/C(=C2\SC(=O)N(CC(=O)O)C2=O)c2ccccc21 [II-12] | – | – | 35 | 1660 ± 168 | –
20 | CCCCCCOc1ccc(-c2nn(-c3ccc(Cl)cc3)cc2C=C2C(=O)NC(=O)NC2=O)cc1 [VI-04] | – | – | 46 | 285 ± 65 | –
21 | CCCCOc1ccc(-c2nn(-c3ccc(Cl)cc3)cc2/C=C(/C#N)C(=O)O)cc1 [VII-14] | – | – | 30 | 190 ± 68 | –
22 | CCCCCCCCOc1ccc(-c2nn(-c3ccccc3)cc2C=C2C(=O)NC(=O)NC2=O)cc1 [VI-05] | 2160 ± 188 | 323 ± 52 | – | – | –
23 | CCCCCCN1C(=O)/C(=C2\SC(=O)N(CC(=O)O)C2=O)c2ccccc21 [II-13] | – | – | 57 | 1070 ± 116 | –
24 | CCCCOc1ccc(-c2nn(-c3ccccc3)cc2/C=C(/C#N)C(=O)O)cc1 [VII-13] | – | – | 21 | 296 ± 68 | –
25 | O=C1NC(=O)C(=Cc2ccc(OCCCOc3ccc(-c4ccccc4)cc3)c(Cl)c2)C(=O)N1 [Compound I-35] | – | 337 ± 34 | 17 | – | –
26 | O=C(O)CN1C(=O)/C(=C2\SC(=O)N(CCCCC3CCCCC3)C2=O)c2ccccc21 [II-32] | – | – | 44 | 2560 ± 442 | –
